From article PMC10288505, “Photoswitchable Calixarene Activators for Controlled Peptide Transport across Lipid Membranes” (Journal of the American Chemical Society, 2023) come the findings set out here.

Several values for one entry are separate records, joined by “and”; a condition that tells them apart may be missing. Equal values may be shown once. Read-outs that look alike come from different tables or passages of the source.

The nature of this assay: Carboxyfluorescein (CF) dye efflux assay, counterion-activated peptide transport. Format: biochemical. The following applies: for TE (transport efficiency), R6 transport / TE (transport efficiency), R8 transport: TE = Ymax × pEC50/f, pEC50 = −log EC50 (in mM), f = 20.6; for TE (transport efficiency), R6 transport: R6 4 μM; for TE (transport efficiency), R6 transport / TE (transport efficiency), R8 transport / Ymax (maximal CF release relative to Triton X-100 lysis), R6 transport / EC50 / Ymax (maximal CF release relative to Triton X-100 lysis), R8 transport: EYPC-LUV⊃CF 15 μM; for TE (transport efficiency), R8 transport: R8 4 μM; for Ymax (maximal CF release relative to Triton X-100 lysis), R6 transport / EC50 / Ymax (maximal CF release relative to Triton X-100 lysis), R8 transport: 5 mM phosphate buffer pH 7.3, Hill fit, triplicate; for EC50 / Activation of CF release in the presence of peptide R4: 50 mM CF inside; for EC50: fluorescence; for Activation of CF release in the presence of peptide R4: R4 5 µM, EYPC-LUV⊃CF 15 µM. The method, then:
Dynamic light scattering (DLS) control experiments also confirmed liposome integrity under the experimental conditions employed in the different membrane transport assays, which ruled out potential membrane disruption interferences (Figure S34). Established dye efflux assays were performed using the carboxyfluorescein (CF) dye encapsulated at self-quenching concentrations in egg phosphatidylcholine large unilamellar vesicles (EYPC-LUV⊃CF).[26],[27],[29],[45] In these experiments, the fractional release of trapped CF (or fractional transport activity, Y), triggered by the addition of counterion activators and peptides, is monitored by time-resolved fluorescence spectroscopy and calibrated by the addition of Triton X-100 (Figure S35).
The studies were performed with both 1 and 2 in the E and Z configurations in the presence of fixed concentrations of liposomes and cationic peptides. […] Likewise, the addition of peptides alone or nonbinding anionic peptides in the presence of calixarene activators also results in unmodified fluorescence signal, confirming that the formation of the calixarene–peptide complex is critical to activate the transport process. […] This approach retrieves the Ymax (i.e., maximal CF release relative to liposome lysis after the addition of Triton X-100) and EC50 (i.e., the effective counterion activator concentration required to reach Ymax/2) as the relevant parameters to measure the efficiency of the counterion activators.
10 mg of L-α-phosphatidylcholine (95%) (Egg, Chicken) were dissolved in 1 ml of chloroform. The solution was evaporated under a nitrogen stream, under rotation, to form a thin lipid film in the bottom of the flask. This film was left to dry under vacuum for a minimum of 1h. After drying the maximum of the solvent from the solution, 1 ml of the solution to incorporate (CF 50 mM in 5 mM phosphate buffer for EYPC-LUV⊃CF and only phosphate buffer 5 mM pH 7.4, for the LUVs with no encapsulation) was added to the thin film and the lipids were left to resuspend under agitation, in a 40 °C bath, for 30 min. The resuspended lipid mixture was then submitted to 10 freeze-thaw cycles and extruded 23 times through a 100 nm membrane, to obtain uniform, monodisperse liposomes with high encapsulation of the added solution. The liposomes were then separated from the molecules that were not encapsulated by size-exclusion chromatography, with Sephadex G25 (V = 37 ml), obtaining two fractions, one with high turbidity and a clear one, corresponding to the encapsulated and free sensor, respectively. The samples were then analyzed by Dynamic Light Scattering (DLS) to determine the average size of the liposomes in solution and their size distribution.
All assays were done up to 48h after the preparation of the vesicles to ensure their integrity and majority of CF still encapsulated.
EC50 and Ymax calculation. For the measurement of 1 and 2’s effectiveness as a counterion activators of polyarginine transport, dye efflux assays were executed at several counterion activator concentrations, while maintaining the concentration of peptide and LUV fixed as indicated in the respective figures.
For the dye efflux assays, CF emission was followed throughout the assay, with consecutive additions of the elements of the solution – the initial solution presented only the vesicles at a fixed concentration. A counterion activator aliquot is then added according to the concentration to be tested and the emission is measured to confirm that CF remains encapsulated; some counterion activators can act as detergents at sufficient concentrations. Finally, the peptide in question is added and fluorescence spectra are measured […]
until the emission stabilizes and a maximum of release is reached. If the counterion activator has the capacity to activate the transport, CF should be co-transported to the exterior of the liposome with the influx of the counterion-peptide complex. Finally, Triton X-100 is added to the solution to dissolve the […]

Where [1] appears, read: peptide R6 4 μM, read-out: EC50 (effective counterion activator concentration to reach Ymax/2), R6 transport.
The mark [2] stands for this setting: peptide R8 4 μM, read-out: EC50 (effective counterion activator concentration to reach Ymax/2), R8 transport.

Turning to `O=S(=O)([O-])c1cc2c(O)c(c1)Cc1cc(S(=O)(=O)[O-])cc(c1O)Cc1cc(S(=O)(=O)[O-])cc(c1OCCCCCCOc1ccc(/N=N/c3ccccc3)cc1)Cc1cc(S(=O)(=O)[O-])cc(c1O)C2.[Li+].[Li+].[Li+].[Li+]` [E-1], the “TE (transport efficiency), R6 transport” value amounted to 19.4 ± 0.2 and the “TE (transport efficiency), R8 transport” value turned out to be 20.3 ± 0.4. Besides, the “Ymax (maximal CF release relative to Triton X-100 lysis), R6 transport” value (peptide R6 4 μM) was 96% and 96 ± 1%. The EC50 under setting [1] stood at 72 ± 5 nM. Besides, the “Ymax (maximal CF release relative to Triton X-100 lysis), R8 transport” value (peptide R8 4 μM) stood at 91 ± 2%. Further, the EC50 under setting [2] was 24 ± 2 nM.
As for `CCCCc1ccc(/N=N/c2ccc(OCCCOc3c4cc(S(=O)(=O)[O-])cc3Cc3cc(S(=O)(=O)[O-])cc(c3O)Cc3cc(S(=O)(=O)[O-])cc(c3O)Cc3cc(S(=O)(=O)[O-])cc(c3O)C4)cc2)cc1.[Li+].[Li+].[Li+].[Li+]` [E-2], the “TE (transport efficiency), R6 transport” value is given as 20.2 ± 0.2 and the “TE (transport efficiency), R8 transport” value came to 22.2 ± 0.3. For the same compound, the “Ymax (maximal CF release relative to Triton X-100 lysis), R6 transport” value (peptide R6 4 μM) is 96% and 96 ± 1%. The EC50 under setting [1] worked out at 45 ± 2 nM. Further, the “Ymax (maximal CF release relative to Triton X-100 lysis), R8 transport” value (peptide R8 4 μM) turned out to be 93 ± 2%. Further, under setting [2], the EC50 was 11 ± 1 nM.
As to `O=S(=O)([O-])c1cc2c(O)c(c1)Cc1cc(S(=O)(=O)[O-])cc(c1O)Cc1cc(S(=O)(=O)[O-])cc(c1OCCCCCCOc1ccc(/N=N\c3ccccc3)cc1)Cc1cc(S(=O)(=O)[O-])cc(c1O)C2.[Li+].[Li+].[Li+].[Li+]` [Z-1], the “Activation of CF release in the presence of peptide R4” value is listed as “no activation was observed”; the “TE (transport efficiency), R6 transport” value is 10.8 ± 0.8; the “TE (transport efficiency), R8 transport” value came out at 13.3 ± 0.4. Moreover, for the setting “peptide R6 4 μM”, the “Ymax (maximal CF release relative to Triton X-100 lysis), R6 transport” value was 63% and 63 ± 5%. For the same compound, the EC50 under setting [1] is 291 ± 32 nM. In addition, the “Ymax (maximal CF release relative to Triton X-100 lysis), R8 transport” value (peptide R8 4 μM) was determined as 69 ± 2%. In addition, the EC50 under setting [2] stood at 99 ± 3 nM.
On to `CCCCc1ccc(/N=N\c2ccc(OCCCOc3c4cc(S(=O)(=O)[O-])cc3Cc3cc(S(=O)(=O)[O-])cc(c3O)Cc3cc(S(=O)(=O)[O-])cc(c3O)Cc3cc(S(=O)(=O)[O-])cc(c3O)C4)cc2)cc1.[Li+].[Li+].[Li+].[Li+]` [Z-2], for which the “Activation of CF release in the presence of peptide R4” value is “no activation was observed”; the “TE (transport efficiency), R6 transport” value turned out to be 16.6 ± 0.3; the “TE (transport efficiency), R8 transport” value came to 20.8 ± 0.4. Under “peptide R6 4 μM”, the “Ymax (maximal CF release relative to Triton X-100 lysis), R6 transport” value was 94% and 94 ± 2%. The EC50 under setting [1] amounted to 227 ± 17 nM. The “Ymax (maximal CF release relative to Triton X-100 lysis), R8 transport” value (peptide R8 4 μM) was found to be 94 ± 2%. Further, the EC50 under setting [2] turned out to be 30 ± 4 nM.
